Results as given in patent US12534469B2 (CHILDREN'S HOSPITAL MEDICAL CENTER, priority 2020, dated 2026).

Columns and labels:
MOLM14 (D835Y) cells = assay: Combination drug screening, 10 x 10 matrix, cell viability (Cell Titer Glo); type: cell-based; conditions: for Sum Excess HSA / Interaction with Compound 96: combination with Compound 96, 10 x 10 dataset; for Sum Excess HSA: 48 hours; for concentration required to reach a similar level of potentiation as Compound 106: 7.8 nM Venetoclax, 10×10 combination, compared with Compound 106; for Interaction with Venetoclax: combination with Venetoclax, 10 x 10 dataset
Procedure: Briefly, 10 nL of compounds were acoustically dispensed into 1536-well white polystyrene tissue culture-treated plates with an Echo 550 acoustic liquid handler (Labcyte). MOLM14 (D835Y) cells were then added to compound-containing plates at a density of 500-cells/well in 5 μL of medium. A 10-point custom concentration range was used for all listed drugs. Plates were incubated for 48 hours at standard incubator conditions covered by a stainless steel gasketed lid to prevent evaporation. 48 h post compound addition, 3 μL of Cell Titer Glo (Promega) were added to each well and plates were incubated at room temperature for 15 minutes with the stainless-steel lid in place. Luminescence readings were taken using a Viewlux imager (PerkinElmer) with a 2 second exposure time per plate.
However, different methodologies may yield different numerical scores, and different definitions of what constitutes a deviation from mere additivity vs true drug synergy.
However, the utility in certain drug combinations vs others should not be distinguished based on cutoffs between HSA scores, because the score itself is only a relative indicator that is completely dependent on experimental design and is not an absolute number. Furthermore, the concept of what constitutes clinically meaningful drug synergy is something that is still being debated, not only between pharmacologists and physicians, but amongst pharmacologists themselves.

IRAK1 = molecular target: T1, IRAK1 (Homo sapiens, UniProt P51617); assay: RBC HotSpot Kinase Assay, IRAK1; type: biochemical
T1 construct: purchased Reaction Biology (RBC HotSpot Kinase Assay)
Method in brief: (§1)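 Radiometric filter-binding (HotSpot) activity assay on isolated recombinant kinase, possibly truncated or catalytic domain only, in 20 mM Hepes pH 7.5, 10 mM MgCl2, 1 mM EGTA, 2 mM DTT, 1% DMSO. Compound preincubated 20 min with kinase and substrate, then ^33P-ATP added. Reaction 2 h at room temperature, read by P81 filter binding.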

FLT3 = molecular target: T2, FLT3 (Homo sapiens, UniProt P36888); assay: RBC HotSpot Kinase Assay, FLT3; type: biochemical
T2 construct: purchased Reaction Biology (RBC HotSpot Kinase Assay)
T2 sequence (P36888 564-958 limits assumed): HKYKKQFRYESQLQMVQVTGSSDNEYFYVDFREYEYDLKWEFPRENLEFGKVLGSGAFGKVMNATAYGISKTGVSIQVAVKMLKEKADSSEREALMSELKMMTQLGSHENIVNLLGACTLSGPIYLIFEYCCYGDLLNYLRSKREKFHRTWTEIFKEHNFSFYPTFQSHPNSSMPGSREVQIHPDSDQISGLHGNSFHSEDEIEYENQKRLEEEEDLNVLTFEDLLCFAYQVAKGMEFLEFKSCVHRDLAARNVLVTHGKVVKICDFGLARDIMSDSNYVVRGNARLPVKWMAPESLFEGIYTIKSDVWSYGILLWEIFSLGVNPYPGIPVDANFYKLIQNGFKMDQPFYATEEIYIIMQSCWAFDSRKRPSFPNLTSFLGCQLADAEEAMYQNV
Method in brief: as §1

MOLM14 D835Y cells = assay: MOLM14 D835Y cell viability assay (Cell Titer Glo); type: cell-based; conditions: Homo sapiens, MOLM-14, 48 h
Procedure: Both cell lines have activated FLT3 receptors, each of which carry additional resistance mutations in the kinase domain (D835Y and F691L, respectively).
MOLM14 D835Y and MOLM14 F691L cells were grown in RPMI-1640 media supplemented with 20% fetal bovine serum (FBS). For viability/cytotoxicity assessments, cells were seeded into 1536-well white polystyrene tissue culture-treated Greiner plates using a Multidrop Combi dispenser (ThermoFisher), in final volume 5 μL of growth media per well, at a density of 1000 cells per well. After cell addition, 23 nL of test compound were transferred into individual wells (22 doses tested for each test compound, with a 1:2 dilution series starting at 10 μM) via a 1536 pin-tool. Bortezomib (final concentration 2.3 μM) was used as a positive control for cell cytotoxicity. Plates were incubated for 48 hours at standard incubator conditions covered by a stainless steel gasketed lid to prevent evaporation. 48 hours post compound addition, 3 μL of Cell Titer Glo (Promega) were added to each well and plates were incubated at room temperature for 15 minutes with the stainless-steel lid in place. Luminescence readings were taken using a Viewlux imager (PerkinElmer) with a 2 second exposure time per plate.

IRAK4 = molecular target: T3, IRAK4 (Homo sapiens, UniProt Q9NWZ3); assay: RBC HotSpot Kinase Assay, IRAK4; type: biochemical; design: purchased Reaction Biology (RBC HotSpot Kinase Assay)
T3 sequence (Q9NWZ3 1-460): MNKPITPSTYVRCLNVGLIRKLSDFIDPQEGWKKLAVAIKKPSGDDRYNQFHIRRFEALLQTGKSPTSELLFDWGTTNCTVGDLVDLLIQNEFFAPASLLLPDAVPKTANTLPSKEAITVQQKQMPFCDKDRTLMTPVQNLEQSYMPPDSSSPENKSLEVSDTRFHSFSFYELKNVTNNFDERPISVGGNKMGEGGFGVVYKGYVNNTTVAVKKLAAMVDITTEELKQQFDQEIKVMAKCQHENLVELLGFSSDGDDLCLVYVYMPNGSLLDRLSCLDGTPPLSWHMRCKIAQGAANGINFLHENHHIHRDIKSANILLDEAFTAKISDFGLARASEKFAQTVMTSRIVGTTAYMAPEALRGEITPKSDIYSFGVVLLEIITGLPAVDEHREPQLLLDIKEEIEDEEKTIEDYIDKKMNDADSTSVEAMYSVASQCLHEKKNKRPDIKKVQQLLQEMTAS
Method in brief: as §1

T1 sequence (P51617 whole entry): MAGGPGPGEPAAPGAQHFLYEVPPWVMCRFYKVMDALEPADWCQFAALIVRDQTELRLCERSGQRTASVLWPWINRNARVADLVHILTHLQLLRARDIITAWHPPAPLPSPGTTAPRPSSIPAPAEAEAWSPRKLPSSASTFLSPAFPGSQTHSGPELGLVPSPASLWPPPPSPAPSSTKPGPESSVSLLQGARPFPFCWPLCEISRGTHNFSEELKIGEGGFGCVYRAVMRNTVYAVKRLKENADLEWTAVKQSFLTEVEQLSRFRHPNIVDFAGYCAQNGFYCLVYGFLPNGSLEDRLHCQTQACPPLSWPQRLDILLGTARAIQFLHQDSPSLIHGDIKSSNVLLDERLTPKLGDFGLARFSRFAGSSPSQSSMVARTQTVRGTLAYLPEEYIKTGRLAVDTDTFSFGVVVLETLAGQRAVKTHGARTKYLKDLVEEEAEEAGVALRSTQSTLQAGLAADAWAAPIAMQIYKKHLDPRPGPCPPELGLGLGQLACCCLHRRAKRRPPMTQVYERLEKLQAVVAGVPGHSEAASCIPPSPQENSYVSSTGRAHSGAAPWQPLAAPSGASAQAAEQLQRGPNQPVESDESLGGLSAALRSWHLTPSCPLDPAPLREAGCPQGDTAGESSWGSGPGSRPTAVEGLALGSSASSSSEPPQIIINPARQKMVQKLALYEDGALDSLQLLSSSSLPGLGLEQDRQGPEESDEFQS

In the case of `C[C@H]1C[C@@H]2[C@H]([C@@H](O)C[C@@]3(C)[C@H]2CC[C@]3(O)C(=O)CO)[C@@]2(C)C=CC(=O)C=C12` [Methylprednisolone, methylprednisolone, reference compound], the “Sum Excess HSA” value (MOLM14 (D835Y) cells) is reported as 891.
Work on `COc1cc2ncc(-c3cccc(N[C@@H]4CCCNC4)n3)n2nc1C1(C(F)(F)F)CC1` [Compound 84, (R)-6-(7-methoxy-6-(1-(trifluoromethyl)cyclopropyl)imidazo[1,2-b]pyridazin-3-yl)-N-(piperidin-3-yl)pyridin-2-amine] yielded an IC50 (IRAK1) of 536 nM, an IC50 (FLT3) of 1 nM and an IC50 (MOLM14 D835Y cells) of 179 nM. For the same compound, the IC50 (IRAK4) was 83 nM.
`COc1cc2ncc(-c3cccc(N[C@H]4CNC[C@@H]4C)n3)n2nc1C1(C(F)(F)F)CC1` [Compound 83, 6-(7-methoxy-6-(1-(trifluoromethyl)cyclopropyl)imidazo[1,2-b]pyridazin-3-yl)-N-((3R,4S)-4-methylpyrrolidin-3-yl)pyridin-2-amine] showed an IC50 (IRAK1) of 3670 nM, an IC50 (FLT3) of 0.8 nM and an IC50 (MOLM14 D835Y cells) of 259 nM. For the same compound, the IC50 (IRAK4) was 25 nM.
For `F[C@H]1CNC[C@@H]1Nc1cccc(-c2cnc3cccnn23)n1` [Compound 109, N-((3S,4S)-4-fluoropyrrolidin-3-yl)-6-(imidazo[1,2-b]pyridazin-3-yl)pyridin-2-amine], the IC50 (IRAK1) was > 10000 nM, the IC50 (FLT3) was 9 nM and the IC50 (MOLM14 D835Y cells) was 968 nM. For the same compound, the IC50 (IRAK4) was 399 nM.
In the case of “Gilteritinib hemifumarate [reference compound]”, the “concentration required to reach a similar level of potentiation as Compound 106” value (from here on “concentration required”) (MOLM14 (D835Y) cells) is reported as “substantially higher concentrations”.
For `Nc1ccn([C@@H]2O[C@H](CO)[C@@H](O)C2(F)F)c(=O)n1` [Gemcitabine, reference compound], the “Sum Excess HSA” value (MOLM14 (D835Y) cells) was 30.69.
With `Cc1c(-c2c(-c3ccc(F)o3)sc3ncnc(O[C@H](Cc4ccccc4OCc4ccnn4CC(F)(F)F)C(=O)O)c23)ccc(OCCN2CCN(C)CC2)c1Cl` [Compound S63845] the “Sum Excess HSA” value (MOLM14 (D835Y) cells) was 297.3.
For `CC1(C)CCC(C)(C)c2cc(NC(=O)c3ccc(C(=O)O)cc3)ccc21` [Tamibarotene], the “Sum Excess HSA” value (MOLM14 (D835Y) cells) was 850.4.
Compound `FC(F)COc1cnn2c(-c3cccc(N[C@H]4CNC[C@@H]4F)n3)cnc2c1` [Compound 114, 6-(7-(2,2-difluoroethoxy)imidazo[1,2-b]pyridazin-3-yl)-N-((3S,4S)-4-fluoropyrrolidin-3-yl)pyridin-2-amine] has an IC50 (IRAK1) of 3470 nM, an IC50 (FLT3) of 3 nM and an IC50 (MOLM14 D835Y cells) of 326 nM. It also gave an IC50 (IRAK4) of 94 nM.
For `CN1C(=O)N[C@H](Cc2c[nH]c3c(Cl)cccc23)C1=O` [Necrostatin 2], the “Sum Excess HSA” value (MOLM14 (D835Y) cells) was 288.7.
`F[C@H]1CNCC[C@@H]1Nc1cccc(-c2cnc3ccc(-c4cnn5ccccc45)nn23)n1` [Compound 20, N-((3S,4S)-3-fluoropiperidin-4-yl)-6-(6-(pyrazolo[1,5-a]pyridin-3-yl)imidazo[1,2-b]pyridazin-3-yl)pyridin-2-amine] was tested, and the IC50 (IRAK1) was 3 nM, the IC50 (FLT3) was < 0.5 nM and the IC50 (MOLM14 D835Y cells) was 333 nM. The IC50 (IRAK4) was < 0.5 nM.
With `COc1cc2ncc(-c3cccc(N[C@H]4CNC[C@@H]4F)n3)n2nc1C1(C(F)(F)F)CC1` [Compound 82, N-((3S,4S)-4-fluoropyrrolidin-3-yl)-6-(7-methoxy-6-(1-(trifluoromethyl)cyclopropyl)imidazo[1,2-b]pyridazin-3-yl)pyridin-2-amine] the IC50 (IRAK1) was 595 nM, the IC50 (FLT3) was 1 nM and the IC50 (MOLM14 D835Y cells) was 357 nM. The IC50 (IRAK4) was 18 nM.
In the case of `COc1cc2ncc(-c3cccc(N[C@H]4CNCC45CC5)n3)n2nc1C1CC1` [Compound 100, (R)-N-(6-(6-cyclopropyl-7-methoxyimidazo[1,2-b]pyridazin-3-yl)pyridin-2-yl)-5-azaspiro[2.4]heptan-7-amine], the IC50 (IRAK1) is reported as 1380 nM, the IC50 (FLT3) is reported as < 0.5 nM and the IC50 (MOLM14 D835Y cells) is reported as 20 nM. For the same compound, the IC50 (IRAK4) was < 0.5 nM.
In the case of `CC(C)[C@@H](CS(=O)(=O)C(C)C)N1C(=O)[C@@](C)(CC(=O)O)C[C@H](c2cccc(Cl)c2)[C@H]1c1ccc(Cl)cc1` [AMG-232], the “Sum Excess HSA” value (MOLM14 (D835Y) cells) is reported as −222.9.
With `Cc1cc(-c2nc(C(=O)Nc3cc4oc(N5CCOCC5)nc4nc3N3CC[C@@H](O)C3)co2)ccn1` [CA-4948, reference compound] the “concentration required” value (MOLM14 (D835Y) cells) was “substantially higher concentrations” and the “Interaction with Venetoclax” value (MOLM14 (D835Y) cells) was “synergize”.
With “Gilteritinib hemifumerate [reference compound]” the “Interaction with Venetoclax” value (MOLM14 (D835Y) cells) was “synergize”.
For `COc1cc(C(=O)O)ccc1NC(=O)[C@@H]1N[C@@H](CC(C)(C)C)[C@](C#N)(c2ccc(Cl)cc2F)[C@H]1c1cccc(Cl)c1F` [Idasanutlin], the “Sum Excess HSA” value (MOLM14 (D835Y) cells) was 192.3.
With `C[C@@H]1C[C@H]2[C@@H]3CCC4=CC(=O)C=C[C@]4(C)[C@@]3(F)[C@@H](O)C[C@]2(C)[C@@]1(O)C(=O)CO` [Dexamethasone, dexamethasone, reference compound] the “Sum Excess HSA” value (MOLM14 (D835Y) cells) was −69.67.
In the case of `COc1c(OCCCN2CCOCC2)ccc2c1N=C(NC(=O)c1cnc(N)nc1)N1CCN=C21` [Copanlisib], the “Sum Excess HSA” value (MOLM14 (D835Y) cells) is reported as −542.8.
`CC1(C)CCC(CN2CCN(c3ccc(C(=O)NS(=O)(=O)c4ccc(NCC5CCOCC5)c([N+](=O)[O-])c4)c(Oc4cnc5[nH]ccc5c4)c3)CC2)=C(c2ccc(Cl)cc2)C1` [Venetoclax (ABT-199), venetoclax, reference compound] was tested, and the “Sum Excess HSA” value (MOLM14 (D835Y) cells) was −549.6211.
With `O=C1CC[C@H](N2Cc3c(OCc4ccc(CN5CCOCC5)cc4)cccc3C2=O)C(=O)N1` [Iberdomide] the “Interaction with Compound 96” value (MOLM14 (D835Y) cells) was “Antagonistic”.
For `CC(C)(C)c1cc(NC(=O)Nc2ccc(-c3cn4c(n3)sc3cc(OCCN5CCOCC5)ccc34)cc2)no1` [Quizartinib, reference compound], the “concentration required” value (MOLM14 (D835Y) cells) was “substantially higher concentrations” and the “Interaction with Venetoclax” value (MOLM14 (D835Y) cells) was “synergize”.
In the case of `COc1cccc2nc(-c3cccs3)nc(NN3C(=O)C=C(C)C3=O)c12` [SPC-839], the “Sum Excess HSA” value (MOLM14 (D835Y) cells) is reported as −326.8.
For `CC(=O)c1c(C)c2cnc(Nc3ccc(N4CCNCC4)cn3)nc2n(C2CCCC2)c1=O` [Palbociclib, reference compound], the “Sum Excess HSA” value (MOLM14 (D835Y) cells) was 999.2.
For `C[C@]12C=CC(=O)C=C1CC[C@@H]1[C@@H]2[C@@H](O)C[C@@]2(C)[C@H]1CC[C@]2(O)C(=O)CO` [Prednisolone, prednisolone, reference compound], the “Sum Excess HSA” value (MOLM14 (D835Y) cells) was −46.1.
In the case of `CC1(C)CC[C@]2(NC(=O)C(C)(F)F)CC[C@]3(C)[C@H](C(=O)C=C4[C@@]5(C)C=C(C#N)C(=O)C(C)(C)[C@@H]5CC[C@]43C)[C@@H]2C1` [Omaveloxolone], the “Sum Excess HSA” value (MOLM14 (D835Y) cells) is reported as 196.
In the case of `CN1C(=O)[C@@H](NC(=O)c2n[nH]c(Cc3ccccc3)n2)COc2ccccc21` [GSK-2982772], the “Interaction with Compound 96” value (MOLM14 (D835Y) cells) is reported as “Synergestic” and the “Sum Excess HSA” value (MOLM14 (D835Y) cells) is reported as −577.
In the case of `CCOC(=O)c1ccc(C#Cc2ccc3c(c2)C(C)(C)CCS3)nc1` [Tazarotene], the “Sum Excess HSA” value (MOLM14 (D835Y) cells) is reported as −189.
